The record followed here is PubChem BioAssay (NCI).

Several values for one entry are separate records, joined by “and”; a condition that tells them apart may be missing. Equal values may be shown once.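 A five-concentration, 48-hour dose response in 96-well plates underlies each endpoint, interpolated linearly between surrounding concentrations. GI50 = concentration required for 50% inhibition of growth. At the TGI there is no net growth.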

Holding throughout (experiment): NCI tumour cell line growth inhibition, 48 h
Assay [1] has as its system NCI/ADR-RES ovarian.
Assay [2] deals with UACC-257 melanoma.
Assay [3] relates to MDA-MB-435.
The subject of assay [4] is OVCAR-8 ovarian.
In assay [5] the test system is NCI-H226 lung.
The test system of assay [6] is SR leukemia.
Assay [7] relates to SW-620 colon.
Assay [8] has as its system MALME-3M melanoma.
For assay [9], the system named is SF-539 CNS.
Assay [10] has as its system NCI-H460 lung.

For `CN(C)c1ccc(/C=C\c2ccnc3ccccc23)cc1`, the GI50 in assay [1] was 2.93 µM; in assay [2] it was 8.39 µM; in [3] it was 1.47 µM; in assay [4], 5.26 µM; in assay [5], 2.86 µM; in assay [7], 5.78 µM. The GI50 in assay [8] is 17.7 µM; in [9], 5.17 µM; in [10] it was 5.2 µM. Also, the TGI in assay [1] was > 58.5 µM; in assay [2], 79.4 µM; in [3], > 30.5 µM; in assay [4], > 100 µM; in assay [5], 48.2 µM; in assay [6], > 100 µM. Also, the TGI in [7] is > 96 µM; in assay [8], > 89.2 µM; in [9] it was 25.8 µM; in assay [10] it was > 91.8 µM.

As to `O=C(Nc1ccc(Oc2ccc(F)cc2)cc1)[C@@H]1C[C@@H](Cc2ccc(F)cc2)CN1C(=O)Cn1ccnn1`, the GI50 in assay [1] is 12.1 µM; in assay [2], 8.04 µM; in assay [3] it was 7.16 µM; in assay [4] it was 7.16 µM; in [5], 7.79 µM; in assay [6], 3.14 µM. Besides, the GI50 in assay [7] is 12.6 µM; in assay [8] it was 9.49 µM; in assay [9] it was 10.6 µM; in assay [10] it was 5.37 µM. Also, the TGI in [1] stood at 52.5 µM; in assay [2], 24.9 µM; in [3], 23.7 µM; in assay [4], 31.9 µM; in [5] it was 29 µM; in assay [6], 14.2 µM. For the same compound, the TGI in assay [7] was 40 µM; in [8] it was 26.1 µM; in [9] it was 26.6 µM; in [10] it was 21.4 µM.

On to `COc1cnc2c(c1)C(=O)c1c-2n(CCCNC2=NCCS2)c(=O)c2cc(F)ccc12`, for which the GI50 is 0.34 µM in [1]; 0.456 µM in assay [2]; 0.75 µM in assay [3]; 0.132 µM in assay [4]; 0.247 µM in assay [5]; 0.0499 µM in assay [6]. Besides, the GI50 in assay [7] is 0.12 µM; in [8] it was 0.598 µM; in assay [9], 0.305 µM; in assay [10] it was 0.0356 µM. Moreover, the TGI in assay [1] was 11.9 µM; in assay [2] it was 20.4 µM; in [3] it was 2.37 µM; in assay [4], 4.72 µM; in assay [5], 1.66 µM; in assay [6], 2.04 µM. Moreover, the TGI in [7] was found to be 3.34 µM; in assay [8], 13.2 µM; in assay [9] it was 1.09 µM; in assay [10] it was 1.11 µM.

In the case of `CC(C)/C=C1\CCC(CN(C)C)C1=O` (stereo not given), the TGI in [1] was determined as 10.6 µM; in [2] it was 10.8 µM; in assay [3], 3.01 µM; in assay [4], 6.97 µM; in assay [5], 83 µM; in assay [6], 4.53 µM. In addition, the TGI in assay [7] worked out at 1.55 µM; in assay [8], 2.29 µM; in [9], 19.8 µM; in [10] it was 40.1 µM.

With `O=C1CC(c2c[nH]c3ccc(F)cc23)C(=O)N1` (stereo not given), the GI50 in assay [1], in [2], in assay [3], in assay [4], in assay [5] and in assay [6] was > 100 µM in each case. Also, the GI50 in [7], in assay [8], in [9] and in assay [10] was > 100 µM in each case. Also, the TGI in assay [1], in assay [2], in assay [3], in assay [4], in [5] and in assay [6] was > 100 µM throughout. Further, the TGI in assay [7], in assay [8], in [9] and in [10] was > 100 µM in each case.

In the case of `O=C1NC(=NCc2ccccc2Cl)S/C1=C\c1ccc2ncccc2c1`, the GI50 is > 25 µM in assay [1]; > 25 µM in assay [2]; 6.83 µM in assay [3]; > 25 µM in assay [4]; > 18.3 µM in [5]; 1.04 µM in [6]. Moreover, the GI50 in assay [7] was 6.61 µM; in [8] it was > 20.7 µM; in assay [9], 3.59 µM; in [10] it was 10.6 µM. For the same compound, the TGI in assay [1] was > 25 µM; in assay [2], > 25 µM; in [3] it was > 25 µM; in [4] it was > 25 µM; in [5], > 25 µM; in [6], > 19.6 µM. In addition, the TGI in [7], in assay [8], in assay [9] and in [10] was > 25 µM in each case.

Take `CC(=O)OCC1OC(n2c(=S)n(-c3ccc([N+](=O)[O-])cc3)c(=O)c3ccccc32)C(OC(C)=O)C(OC(C)=O)C1OC(C)=O` (stereo not given): the TGI was 95.2 µM in [1]; 38.1 µM and 97.3 µM in [2]; > 100 µM in [3]; 63.5 µM and 47.6 µM in assay [4]; 58.4 µM and 49 µM in assay [5]; > 100 µM in [6]. In addition, the TGI in [7] is > 100 µM; in assay [8], 38.4 µM; in assay [9], 36 µM and 29.7 µM; in assay [10] it was > 69.8 µM and 68.2 µM. For the same compound, the GI50 was 13 µM and 28.3 µM in [2]; 10.1 µM and 20.4 µM in assay [5]; 4.67 µM in [6]; 18 µM and 30.4 µM in assay [7].

Consider `COC(=O)NC1C(C)OC(OC2C/C=C(/C)C3C=CC4C(OC5CC(OC6CCC(OC7CC(O)C(OC8CCC(O)C(C)O8)C(C)O7)C(C)O6)C(OC(C)=O)C(C)O5)C(C)CC(C)C4C3(C)/C(O)=C3/C(=O)OC4(CC(C=O)=CC(O)C4/C=C\2C)C3=O)CC1(C)[N+](=O)[O-]` (stereo not given), for which the TGI in assay [1] was 26.3 µM; in assay [2] it was 2.47 µM and 11.1 µM; in assay [3] it was 1.06 µM; in [4], 3.85 µM and 2.73 µM; in [5], 2.72 µM; in [6], 11 µM. Also, the TGI in assay [7] was 4.74 µM and 1.11 µM; in assay [8], 1.62 µM and 0.292 µM; in assay [10] it was 2.17 µM and 2.14 µM. Further, the GI50 was 1.09 µM in [2]; 0.265 µM in assay [4]; 0.212 µM in assay [7]; 0.12 µM in assay [8]; 0.0287 µM in assay [9]; 0.319 µM in assay [10].

For `O=C(O)C1=C/C(=C(/c2ccccc2)c2cc(C(=O)O)c(O)c3ccccc23)c2ccccc2C1=O`, the TGI in assay [1], in assay [2], in assay [3], in assay [4], in assay [5] and in [6] was > 100 µM in each case. The TGI in assay [7], in [8], in assay [9] and in assay [10] was > 100 µM in each case.

With `O=C1NC(=NCCc2ccc(F)cc2)S/C1=C\c1ccc2ncccc2c1`, the GI50 in assay [1] was > 25 µM; in assay [2], > 25 µM; in assay [3], > 25 µM; in assay [4], > 25 µM; in assay [5] it was > 25 µM; in [6], 7.09 µM. Besides, the GI50 in [7] is > 23.3 µM; in assay [8] it was > 25 µM; in assay [9], > 25 µM; in assay [10], > 25 µM. For the same compound, the TGI in assay [1], in assay [2], in assay [3], in [4], in assay [5] and in assay [6] was > 25 µM each time. Besides, the TGI in [7], in assay [8], in [9] and in assay [10] was > 25 µM throughout.

On to `C/C(=N\O)c1ccc2ccc3ccccc3c2c1`, for which the TGI is 85.3 µM in assay [1]; 53.4 µM in assay [2]; 46.9 µM in [3]; 61.4 µM in [4]; 85.6 µM in assay [5]; 48.7 µM in assay [6]. Moreover, the TGI in assay [7] was > 100 µM; in assay [8] it was 50.5 µM; in [9], 38.8 µM; in assay [10] it was > 100 µM.

For `CC1CC2C3CCC4=CC(=O)C=CC4(C)C3(F)C(O)CC2(C)C1(O)C(=O)COP(=O)(O)O` (stereo not given), the GI50 in assay [1], in [2], in assay [3], in assay [4], in assay [5] and in assay [7] was > 500 µM each time. The GI50 in [8], in assay [9] and in assay [10] was > 500 µM each time. Further, the TGI in assay [1] was > 500 µM; in assay [2], > 500 µM; in assay [3], > 500 µM; in assay [4], > 500 µM; in assay [5], > 500 µM; in assay [6], > 100 µM. Further, the TGI in assay [7], in assay [8], in assay [9] and in assay [10] was > 500 µM each time.

Regarding `NS(=O)(=O)c1ccc(Nc2cc(-c3ccc(O)c(F)c3)[nH]n2)cc1`, the GI50 was > 25 µM in assay [1]; > 25 µM in [2]; > 23.5 µM in assay [3]; 17.8 µM in assay [4]; > 25 µM in assay [5]; 12.5 µM in assay [6]. Besides, the GI50 in assay [7] is > 25 µM; in [8] it was > 23.2 µM; in [9] it was 13.5 µM; in assay [10] it was > 25 µM. Further, the TGI in assay [1], in [2], in assay [3], in [4], in assay [5] and in [6] was > 25 µM in each case. The TGI in assay [7], in assay [8], in [9] and in assay [10] was > 25 µM each time.

For the compound `COc1ccc2c(c1)OC(N)=C(C#N)C2c1cc(OC)c(OC)c(OC)c1` (stereo not given), the GI50 is 0.0199 µM in assay [1]; 0.0457 µM in assay [2]; 0.0189 µM in assay [3]; 0.0355 µM in [4]; 0.0573 µM in assay [5]; 0.0345 µM in assay [6]. Further, the GI50 in assay [7] is 0.038 µM; in assay [8] it was 80.5 µM; in assay [9], 0.0316 µM; in [10], 0.0345 µM. The TGI in assay [1] was 0.0449 µM; in [2], > 100 µM; in [4] it was > 70.2 µM; in assay [5] it was > 100 µM; in assay [6], > 100 µM; in [7], > 100 µM. In addition, the TGI in assay [8] was > 100 µM; in assay [9], 31.8 µM.

Consider `CCCn1c2c(c3ccccc3c1=O)C(=O)c1ccccc1-2`, for which the TGI in assay [1], in assay [2], in [3], in assay [4], in assay [5] and in [6] was > 100 µM throughout. Also, the TGI in assay [7], in assay [8], in assay [9] and in [10] was > 100 µM in each case.

With `C=C1C(=O)O[C@H]2[C@H]1CC/C(COC(=O)c1cc(OC)c(OC)c(OC)c1)=C\CC[C@@]1(C)O[C@@H]21`, the GI50 in [1] was 2.87 µM; in assay [2], 1.39 µM; in [3], 1.64 µM; in assay [4], 1.85 µM; in assay [5], 1.4 µM; in assay [6] it was 0.342 µM. The GI50 in assay [7] is 0.355 µM; in assay [8] it was 1.77 µM; in assay [9] it was 0.895 µM; in assay [10], 2.35 µM. Further, the TGI in assay [1] is 13.8 µM; in [2], 3.12 µM; in [3], 4.13 µM; in assay [4], 10.3 µM; in assay [5], 3.63 µM; in assay [6], 7.33 µM. For the same compound, the TGI turned out to be 1.57 µM in assay [7], 3.77 µM in [8], 2.24 µM in assay [9] and 6.52 µM in assay [10].
